In PMC9062259, “Mammalian Ddi2 is a shuttling factor containing a retroviral protease domain that influences binding of ubiquitylated proteins and proteasomal degradation” (The Journal of Biological Chemistry, 2022):

T1: Ddi2 (Homo sapiens, UniProt Q5TDH0)
T1 construct: His6-Ddi2
T1 sequence (Q5TDH0 1-399): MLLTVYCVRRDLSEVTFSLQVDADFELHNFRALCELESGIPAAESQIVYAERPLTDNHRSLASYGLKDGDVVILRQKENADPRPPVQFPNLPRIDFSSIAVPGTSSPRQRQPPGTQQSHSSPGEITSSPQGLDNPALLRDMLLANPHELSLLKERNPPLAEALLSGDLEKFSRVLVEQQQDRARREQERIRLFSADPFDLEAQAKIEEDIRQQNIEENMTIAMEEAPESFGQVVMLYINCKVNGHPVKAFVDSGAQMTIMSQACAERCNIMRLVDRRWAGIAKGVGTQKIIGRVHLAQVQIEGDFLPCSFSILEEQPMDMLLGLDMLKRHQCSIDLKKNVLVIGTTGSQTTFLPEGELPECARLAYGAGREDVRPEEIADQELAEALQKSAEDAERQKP


Key:
Ddi2 = target: T1, Ddi2; assay: Inhibition of cleavage of fluorescently labeled ubiquitylated NeD-sfGFP by purified His6-Ddi2 (SDS-PAGE, fluorescence imaging); type: biochemical
[1] = target: the molecule itself; assay: SEC; His-Ddi2 after Ni-NTA on a Superdex 16/60 column in 25 mM Hepes-KOH pH 8, 40 mM potassium acetate, 10% glycerol, 1 mM DTT

Row | Molecule | EC50 (Ddi2) [µM] | binding result [1]
1 | Cc1c(O)cccc1C(=O)N[C@@H](CSc1ccccc1)[C@H](O)CN1C[C@H]2CCCC[C@H]2C[C@H]1C(=O)NC(C)(C)C [nelfinavir] | ~40 | –
2 | His6-Ddi2 (natural protein, human, UniProt Q5TDH0 1-399, looked up, Ddi2, human, from a pET16b plasmid (gift from Klara Saskova); Collected from gel filtration at a molecular weight consistent with dimerization; also called His-Ddi2; purified Ddi2; source: E. coli BL21 RIL (DE3) Codon Plus, purified (Ni-NTA, Superdex gel filtration)) MLLTVYCVRRDLSEVTFSLQVDADFELHNFRALCELESGIPAAESQIVYAERPLTDNHRSLASYGLKDGDVVILRQKENADPRPPVQFPNLPRIDFSSIAVPGTSSPRQRQPPGTQQSHSSPGEITSSPQGLDNPALLRDMLLANPHELSLLKERNPPLAEALLSGDLEKFSRVLVEQQQDRARREQERIRLFSADPFDLEAQAKIEEDIRQQNIEENMTIAMEEAPESFGQVVMLYINCKVNGHPVKAFVDSGAQMTIMSQACAERCNIMRLVDRRWAGIAKGVGTQKIIGRVHLAQVQIEGDFLPCSFSILEEQPMDMLLGLDMLKRHQCSIDLKKNVLVIGTTGSQTTFLPEGELPECARLAYGAGREDVRPEEIADQELAEALQKSAEDAERQKP | – | binds
